Measurements reported in PMC5460220, “Dual PI3K and Wnt pathway inhibition is a synergistic combination against triple negative breast cancer” (NPJ Breast Cancer, 2017).
Like-named read-outs stand apart in the source and are kept apart here.

Experiments:
[1] = tested on: porcupine; set-up: method as in PMID 24277854; conditions: recently published data; cited from earlier work
[2] = tested on: TMD-231 lung metastases; assay: quantification of lung metastases, Ki67 staining; type: in vivo, NSG mice; conditions: TMD-231 xenograft, PD study lungs; combination p = 0.0196
Text: The TMD-231 cells used in our PD study have a known propensity to metastasize to the lung.[29] To assess the effect of the combination therapy on the growth of lung metastases, lung tissues from our PD study were stained and analyzed for metastatic burden. […] Lungs were extracted, fixed in 10% formalin, and processed in paraffin. Five-micrometer sections were H&E stained, deparaffinized, blocked, and stained using primary anti-human Ki67 antibody (DAKO, Carpinteria, California). The Aperio whole slide digital imaging system was used for imaging (Leica, Wetzlar, Germany). Using the Aperio ScanScope CS, ×20 images were taken at scan times ranging from 1.5 to 2.25 min. The total nuclear labeling index (Ki67) was generated using the Aperio ImageScope standard positive pixel algorithm. The Image Analysis software was used to calculate the percent of positive pixels (brown staining) in one large cross section from each lung.

[3] = quantification of drug in resected tumors, HPLC-MS/MS; type: in vivo, NSG mice; conditions: NSG, mouse, tumor, 7 days once daily, average with standard deviation; for concentration at 1 h: 1 h post the last dose; for concentration at 7 h: 7 h post the last dose
Method: After 7 days of treatment, we observe a ~40% decrease in tumor volume. b Quantification of drug in tumors resected from mice treated in our PD study. Half of the tumors were resected at 1 h post the last dose, and the other half 7 h post the last dose. Using Highperformance liquid chromatography-mass spectrometry (HPLC-MS/MS), buparlisib and WNT974 were quantified as nanograms of drug per gram of tumor tissue (ng/g). Average values with standard deviation are presented. LOQ limit of quantitation c As TMD-231 cells have a known propensity to metastasize to the lung, we assessed the effect of the combination therapy on the growth of lung metastases.

[4] = tested on: phospho-AKT; assay: western blot for phospho-AKT in PD study tumors; type: in vivo, NSG mice; conditions: TMD-231 xenograft tumors, 7 days of dosing
Method: (§1) To further assess preliminary efficacy and target modulation, a PD experiment was performed. […] Tumors were allowed to grow for 29 days to an average size of ~350 mm^3. […] After only 7 days of treatment, we observed a ~40% decrease in tumor volume with the combination, while tumors actually grew slightly in the face of single agent therapy, again, giving further observations of synergy (Fig. 4a). On the 7th day, the mice had plasma drawn, and then euthanized and the tumor removed. Measurement of buparlisib and WNT974 concentrations in tumor tissue confirmed that these agents were reaching the tumor (Fig. 4b). To assess molecular target modulation, RNA and protein was isolated from each of the tumors in our PD study and biomarker analysis was performed. […] (Supplementary Fig. 3a). […] Target modulation was assessed using qPCR for Axin2 (a marker of WNT974), and western blot for porcupine and phospho-Akt […] (a marker of buparlisib activity). qPCR was performed using Taqman assays (Life Technologies). Protein was isolated after 48 h of treatment in biological triplicates using radioimmunoprecipitation assay buffer and quantified with bicinchoninic acid assay (Thermo Fisher). Protein was run on bis-tris gels (Life Technologies) and transferred to polyvinylidene fluoride membrane. […] Quantification of blots was performed using ImageJ (NIH) and statistical analysis using GraphPad.

[5] = tested on: tumor growth; set-up: method as in PMID 24277854; conditions: recently published data; cited from earlier work
[6] = tested on: AXIN2 RNA; assay: qPCR for AXIN2 RNA in PD study tumors; type: in vivo, NSG mice; conditions: TMD-231 xenograft tumors, 7 days of dosing
Method: as §1

[7] = tested on: TNBC patient-derived xenograft (PDX); assay: TNBC PDX survival study; type: in vivo, NSG mice; conditions: n = 10 per group, once-a-day for a maximum of 28 days, buparlisib 30 mg/kg, WNT974 3 mg/kg
[8] = known; cited from earlier work
[9] = tested on: porcupine (PORCN) protein; assay: western blot for porcupine in TNBC cell lines; type: cell-based, human
Method: (§2) To further confirm the induction of porcupine after buparlisib treatment, but at the protein level, we performed western blotting for porcupine and p-AKT before and after treatment with buparlisib.
(§3) Target modulation was assessed using qPCR for Axin2 (a marker of WNT974), and western blot for porcupine and phospho-Akt Ser 473 (a marker of buparlisib activity). qPCR was performed using Taqman assays (Life Technologies). Protein was isolated after 48 h of treatment in biological triplicates using radioimmunoprecipitation assay buffer and quantified with bicinchoninic acid assay (Thermo Fisher). Protein was run on bis-tris gels (Life Technologies) and transferred to polyvinylidene fluoride membrane. Primary pAKT-Ser 473 antibody (Cell Signaling Technology, Beverly, Massachusetts), β-actin (Cell Signaling Technology), and PORCN (Abcam, Cambridge, England) was incubated overnight with subsequent 1-hour incubation with horseradish peroxidase-conjugate secondary antibody. Staining was performed using a chemiluminescent substrate (ThermoFisher). Imaging was performed using an LAS-4000 Luminescent Image Analyzer (Fujifilm, Tokyo, Japan). Quantification of blots was performed using ImageJ (NIH) and statistical analysis using GraphPad.

[10] = tested on: phosphorylated-AKT (p-AKT Ser 473); assay: western blot for p-AKT in TNBC cell lines; type: cell-based, human; conditions: MDA-MB-231, HCC70 and HCC1143; 48 h treatment
Method: as §2, §3

[11] = tested on: porcupine (PORCN); assay: RNA-seq of MDA-MB-231 cells before and after buparlisib treatment; type: cell-based, human; conditions: MDA-MB-231, RNA-seq before and after treatment
Method: RNA-sequencing for the buparlisib treated MDA-MB-231 cell line experiment was performed as follows. To enrich for the non-ribosomal RNA transcriptome, RNA samples were first depleted of ribosomal RNA using the Low Input Ribominus Kit (Life Technologies). ERCC spike-in controls (Pool 1) were introduced for all samples (Life Technologies). RNA libraries were constructed using the Ion Total RNA-Seq Kit for AB Library Builder System (Life Technologies) per manufacturer’s instructions. Libraries were barcoded using the IonXpress RNA-Seq Barcode 1–16 Kit (Life Technologies), and libraries were quantified using the Agilent TapeStation 2200 along with the DNA D1K Kit. Libraries were diluted to a concentration of 11 pM prior to templating and emulsion polymerase chain reaction (PCR) using the Ion Template OT2 200 v2 kit along with Ion OneTouch 2 instrument (Life Technologies). Templates were quantified using the IonSphere Quality Control Kit (Life Technologies). Samples were sequenced on an Ion Proton Next-Generation Sequencer using the Ion Proton PI chip and the Ion PI Sequencing 200 v2 kit (Life Technologies). Samples were sequenced using two RNA-seq libraries/samples per chip to an average of 30–40 million reads per sample. Reads were mapped to the human genome (hg19) using the STAR algorithm.[36] Aligned BAM files were then imported into Partek Genomics Suite. […]

[12] = tested on: metastatic TNBCs; set-up: method as in ref 16 = [16]; 16. Dirix, L. Avelumab (MSB0010718C), an anit-PD-L1 antibody, in patients with locally advanced or metastatic breast cancer: a phse Ib JAVELIN solid tumor trial. SABCS Annual. Meeting. Oral. Presentat; conditions: patients with metastatic TNBCs, phase Ib JAVELIN trial; cited from earlier work
[13] = tested on: advanced TNBC; set-up: method as in ref 17 = [17]; 17. Nanda, R. A phase Ib study of pembrolizumab (MK-3475) in patients with advanced triple- negative breast cancer. SABCS Annual. Meeting. Oral. Presentation . (2014).; conditions: phase Ib trial; cited from earlier work
[14] = 3 mg/kg, read-out: WNT974 in tumor tissue
[15] = 30 mg/kg, read-out: Buparlisib in tumor tissue

## Cc1cc(-c2ncc(CC(=O)Nc3ccc(-c4cnccn4)cn3)cc2C)ccn1 [WNT974]
[1]
  inhibition of its target (porcupine): potent inhibition
[2]
  lung metastases compared with the control group: small but non-significant decreases
[3]; [14]
  concentration at 1 h: 19.2 ± 1.11 ng/g
  concentration at 7 h: 8.34 ± 0.33 ng/g
[4]
  inhibition of phospho-AKT in tumors: not
[5]
  inhibition of tumor growth in vivo: significant inhibition
[6]
  AXIN2 RNA levels in tumors: decreased
[7]
  mice survived to the end of the study: 0%
[8]
  toxicity / most common side effect in humans: dysgeusia

## Nc1cc(C(F)(F)F)c(-c2cc(N3CCOCC3)nc(N3CCOCC3)n2)cn1 [buparlisib]
[2]
  lung metastases compared with the control group: small but non-significant decreases
[9]; HCC70, 10 x IC50 buparlisib, p-value 0.0084
  PORCN protein, quantified western blot: significant increase
[9]; HCC1143, IC50 buparlisib, p-value 0.013
  PORCN protein, quantified western blot: significant increases
[9]; MD-MB-231, IC50 buparlisib, p-value 0.0072
  PORCN protein, quantified western blot: significant increases
[10]
  phospho-AKT after treatment: potent inhibition
[3]; [15]
  concentration at 1 h: 3590 ± 898 ng/g
  concentration at 7 h: 2960 ± 683 ng/g
[11]
  PORCN over-expression after PI3K inhibition: ~ 8 fold
[4]
  inhibition of phospho-AKT in tumors: observed
[7]
  mice survived to the end of the study: 40%
[8]
  toxicity / most common side effect in humans: depression, anxiety, pneumonitis, and liver toxicity

## avelumab: an anti-PD-L1 antibody
[12]
  overall response rate: 8.6%

## pembrolizumab: immune checkpoint therapy tested in a phase Ib trial in advanced TNBC
[13]
  overall response rate: 18.5%
